Source: paper PMC3256143, “Blue News Update: BODIPY-GTP Binds to the Blue-Light Receptor YtvA While GTP Does Not” (PLoS ONE, 2012)

Assays:
YtvA [1] = target: T1, YtvA (Bacillus subtilis, UniProt O34627, M1G); assay: fluorescence enhancement on adding protein ([…] YtvA, […] dye); format: binding
T1 construct: gene pfyP; full-length YtvA and isolated STAS domain (amino acids 148–261)
T1 sequence (O34627 1-261 M1G): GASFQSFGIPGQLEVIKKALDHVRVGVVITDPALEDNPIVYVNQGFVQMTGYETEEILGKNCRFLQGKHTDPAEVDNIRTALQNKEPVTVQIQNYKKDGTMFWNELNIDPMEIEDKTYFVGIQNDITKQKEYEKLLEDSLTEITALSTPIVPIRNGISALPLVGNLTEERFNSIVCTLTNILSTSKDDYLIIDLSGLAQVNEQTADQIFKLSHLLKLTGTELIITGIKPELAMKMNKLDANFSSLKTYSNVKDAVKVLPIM

YtvA [2] = target: T2, YtvA (Bacillus subtilis, UniProt O34627, M1G); assay: ITC; also 1H-15N TROSY/HSQC, STD and WaterLOGSY NMR, fluorescence; format: binding
T2 construct: gene pfyP; full-length YtvA (Met1 replaced by Gly)

| Compound | fluorescence enhancement on adding protein (12 μM YtvA, 2.2 μM dye) (YtvA [1]) | Kd (YtvA [2]) [nM] |
| --- | --- | --- |
| COC(=O)COc1ccc(-c2ccc3n2[B-](F)(F)[N+]2=C(c4cccs4)C=CC2=C3)cc1 [BODIPY methyl ester] | This suggests that only the fluorophore is binding to the protein but the GTP part does not. |  |
| Nc1nc2c(ncn2[C@@H]2O[C@H](COP(=O)(O)OP(=O)(O)OP(=O)(O)O)[C@@H](O)[C@H]2OC(=O)NCCNC(=O)COc2ccc(C3=[N+]4C(=Cc5ccc(-c6cccs6)n5[B-]4(F)F)C=C3)cc2)c(=O)[nH]1 [BODIPY-GTP] |  | 2500 |
